Source: ChEMBL document CHEMBL1201862, “PubChem BioAssay data set” (2004)
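Tested at 5 concentrations; 48 h exposure; 96-well plates; endpoints linearly interpolated, else capped at highest concentration. Here, GI50 denotes the concentration required for 50% inhibition of growth.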 The source made the active and inactive calls. Cut-off read from the data, not from the text of the source: active = GI50 up to about 1.1 µM and inactive = higher.

Key:
Test in all cases: NCI tumour cell line growth inhibition, 48 h
[1] = system: 786-0
[2] = system: SN12C
[3] = system: OVCAR-5
[4] = system: MDA-N
[5] = system: OVCAR-8
[6] = system: HT-29
[7] = system: EKVX
[8] = system: CCRF-CEM
[9] = system: NCI-H460
[10] = system: NCI/ADR-RES
[11] = system: NCI-H522
[12] = system: MCF7
[13] = system: HOP-62
[14] = system: KM12
[15] = system: SW-620
[16] = system: HCC 2998
[17] = system: OVCAR-3
[18] = system: SNB-75
[19] = system: COLO 205
[20] = system: BT-549

SMILES | GI50 [1] | GI50 [2] | GI50 [3] | GI50 [4] | GI50 [5] | GI50 [6] | GI50 [7] | GI50 [8] | GI50 [9] | GI50 [10] | GI50 [11] | GI50 [12] | GI50 [13] | GI50 [14] | GI50 [15] | GI50 [16] | GI50 [17] | GI50 [18] | GI50 [19] | GI50 [20]
CN(/N=C/c1ccc(Cl)c(Cl)c1)C1=NCCN1 | 16.4 µM (inactive) | 29.9 µM (inactive) | > 100 µM (inactive) | 15.7 µM (inactive) | 40.3 µM (inactive) | 25.2 µM (inactive) | 59 µM (inactive) | 16.7 µM (inactive) | 40.8 µM (inactive) | 37.6 µM (inactive) | 13.8 µM (inactive) | 22.9 µM (inactive) | 17.4 µM (inactive) | 28.1 µM (inactive) | 16 µM (inactive) | 30.3 µM (inactive) | 28.6 µM (inactive) | 15.8 µM (inactive) | 17.7 µM (inactive) | 28.3 µM (inactive)
CC1=CC(=O)c2cccc(O)c2C1=O | 1.7 µM (inactive) | 2.32 µM (inactive) | 8.09 µM (inactive) | 1.9 µM (inactive) | 2.56 µM (inactive) | 4.27 µM (inactive) | 4.29 µM (inactive) | 1.91 µM (inactive) | 5.75 µM (inactive) | 1.82 µM (inactive) | 2.25 µM (inactive) | 1.99 µM (inactive) | 17.1 µM (inactive) | 12.6 µM (inactive) | 1.99 µM (inactive) | 8.57 µM (inactive) | 1.53 µM (inactive) | 8.73 µM (inactive) | 2.09 µM (inactive) | 1.75 µM (inactive)
CCOC(=S)SC/C(=N\OC(C)(C)OC)c1ccccc1 | 55.1 µM (inactive) | 89.7 µM (inactive) | 40.4 µM (inactive) | 36.1 µM (inactive) | 88.7 µM (inactive) | 23 µM (inactive) | 48.9 µM (inactive) | 18.1 µM (inactive) | 35 µM (inactive) | > 100 µM (inactive) | 24.1 µM (inactive) | 29.2 µM (inactive) | 42.1 µM (inactive) | 31.9 µM (inactive) | 33.2 µM (inactive) | 26.9 µM (inactive) | 41.1 µM (inactive) | 0.453 µM (active) | 42.8 µM (inactive) | 44 µM (inactive)
c1ccc2c(c1)c1c(c3ccccc32)CN2CCCC2C1 (stereo not given) | 3.94 µM (inactive) | 2.7 µM (inactive) | 3.94 µM (inactive) | 2.82 µM (inactive) | 3.17 µM (inactive) | 3.72 µM (inactive) | 4.74 µM (inactive) | 2.99 µM (inactive) | 3.03 µM (inactive) | 3.94 µM (inactive) | 2.57 µM (inactive) | 2.44 µM (inactive) | 2.79 µM (inactive) | 4.2 µM (inactive) | 2.45 µM (inactive) | 4.22 µM (inactive) | 3.26 µM (inactive) | 3.01 µM (inactive) | 3.63 µM (inactive) | 5.05 µM (inactive)
CCOC(=O)CC[C@H](N)C(=O)N[C@@H](Cc1ccc(N(CCCl)CCCl)cc1)C(=O)OCC | 0.685 µM (active) | 2.15 µM (inactive) | 2.39 µM (inactive) | 0.944 µM (active) | 0.891 µM (active) | 1.1 µM (active) | 2.3 µM (inactive) | < 0.0308 µM (active) | 0.0364 µM (active) | 1.52 µM (inactive) | 1.12 µM (active) | 0.483 µM (active) | 2.37 µM (inactive) | 4.61 µM (inactive) | 0.977 µM (active) | 1.25 µM (inactive) | 0.652 µM (active) | 1.22 µM (inactive) | 0.938 µM (active) | 7.83 µM (inactive)
Cn1c(S)nnc1CNc1ccc(-c2nnc(S)n2C)cc1 | > 100 µM (inactive) | > 100 µM (inactive) | > 100 µM (inactive) | > 100 µM (inactive) | > 100 µM (inactive) | > 100 µM (inactive) | > 100 µM (inactive) | > 100 µM (inactive) | > 100 µM (inactive) | > 100 µM (inactive) | > 100 µM (inactive) | > 100 µM (inactive) | > 100 µM (inactive) | > 100 µM (inactive) | > 100 µM (inactive) | > 100 µM (inactive) | > 100 µM (inactive) | > 100 µM (inactive) | > 100 µM (inactive) | > 100 µM (inactive)
